Measurements from patent US12156912B2, “Methods and compositions for inhibiting diseases of the central nervous system” (Board of Regents of the University of Nebraska, priority 2012, dated 2024).
Square brackets hold non-standard residues; d marks the D form. Ends that are not written are not given here. Tyr(3-NO2) = N[C@@H](Cc1ccc(O)c([N+](=O)[O-])c1)C(=O)O

system: splenocytes of mice immunized with N-4YSyn; test: 3H-thymidine in vitro proliferation assay of splenocytes stimulated with antigen or test peptide; type: cell-based, mice (C57BL/6J); conditions: splenocytes from N-4YSyn/CFA immunized mice; 30 μg/ml antigen or peptide, 5 days; vs media control; no response in PBS immunized mice
Description: B6 (H-2^b) mice were immunized with PBS or 50 μg of N-4YSyn (nitrated C-terminal 40 amino acid α-Syn fragment) in complete Freund's adjuvant (CFA) administered subcutaneously (s.c.). Seven days after primary immunization, mice were boosted with another 50 μg of antigen emulsified in IFA (Sigma-Aldrich). Seven days following their final immunizations, donor mice were sacrificed and single cell suspensions were prepared from the spleen.
Samples of pooled splenocytes were tested for their proliferative capacity by ^3H-thymidine incorporation after stimulation with either immunizing antigen or test peptide. Splenocytes were plated at a density of 2×10^6 cells/ml complete RPMI tissue culture media (RPMI 1640 supplemented with 10% fetal bovine serum (FBS), 2 mM L-glutamine, 10 mM HEPES, 1 mM sodium pyruvate, 1× nonessential aa, 55 μM 2-mercaptoethanol, 100 U/ml penicillin, and 100 μg/ml streptomycin (Mediatech Inc., Herndon, VA)). Splenocytes from PBS or N-4YSyn immunized mice were stimulated with 0 or 30 μg/ml of immunizing antigen N-4YSyn or 30 μg/ml of the non-nitrated or nitrated peptide indicated, and cultured at 37° C. for 5 days. Cells were pulsed with […] ^3H-thymidine/well for the final 18 hours of culture, harvested onto glass fiber plates, and counted by β-scintillation spectrometry (TopCount, Packard-PerkinElmer Instruments, Wellesley, MA).
To test immune responses to particular epitopes within N-α-Syn, mice were immunized with N-4YSyn or PBS emulsified in complete Freund's adjuvant (CFA). Seven days following the initial immunization, mice were boosted with their respective immunogens emulsified in incomplete Freund's adjuvant (IFA). Seven days later, mice were sacrificed and splencoytes were tested for antigen-specific T cell proliferative responses to N-4YSyn or peptide epitope (nitrated or non-nitrated; Table 1).

Sequence	proliferative response (3H-thymidine incorporation)
GSEAYEMPSEEGYQD (GSEA[Tyr(3-NO2)]EMPSEEG[Tyr(3-NO2)]QD; listed as Mus musculus) [Peptide 25, murine α-synuclein positions 121-135, nitrated tyrosines]	significant proliferative response
MPVDPGSEAYEMPSE (MPVDPGSEA[Tyr(3-NO2)]EMPSE; listed as Mus musculus) [Peptide 24, murine α-synuclein positions 116-130, nitrated tyrosine]	significant proliferative response
GILEDMPVDPGSEAY (GILEDMPVDPGSEA[Tyr(3-NO2)]; listed as Mus musculus) [Peptide 23, murine α-synuclein positions 111-125, nitrated tyrosine]	significant proliferative response
GYPQEGILEDMPVDP (G[Tyr(3-NO2)]PQEGILEDMPVDP; listed as Mus musculus) [Peptide 22, murine α-synuclein positions 106-120, nitrated tyrosine]	significant proliferative response
